Data from the supplement of paper PMC10307832.

Key:
Experiment in all cases: relative viability (nuclei count vs DMSO), 5 days (fraction); higher = more cells survive
[1] = compound: CC(C)C[C@@H](C(=O)N[C@H](C(=O)OC1CCCC1)c1ccccc1)[C@H](O)C(=O)NO [Tosedostat] + Nc1ncn([C@H]2C[C@H](O)[C@@H](CO)O2)c(=O)n1 [Decitabine] (partner 2 µM)
Method in brief: (§1)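 Each reported value is a median over duplicate plates. It expresses relative viability: treated-well nuclei count divided by vehicle-well nuclei count. Lung cancer cell lines in 1536-well plates were dosed by pin tool a day after seeding, alone with one drug or with a fixed anchor-drug dose plus five library-drug doses (not always all listed) in √10 steps, and nuclei were counted after 5 days.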

[2] = compound: CC(C)C[C@@H](C(=O)N[C@H](C(=O)OC1CCCC1)c1ccccc1)[C@H](O)C(=O)NO [Tosedostat] + CC(C)C[C@H](NC(=O)[C@H](Cc1ccccc1)NC(=O)c1cnccn1)B(O)O [Bortezomib] (partner 0.002 µM)
Method in brief: as §1

[3] = compound: CC(C)C[C@@H](C(=O)N[C@H](C(=O)OC1CCCC1)c1ccccc1)[C@H](O)C(=O)NO [Tosedostat] + CC(=O)Nc1cccc(-n2c(=O)n(C3CC3)c(=O)c3c(Nc4ccc(I)cc4F)n(C)c(=O)c(C)c32)c1 [Trametinib] (partner 0.02 µM)
Method in brief: as §1

[4] = compound: CC1=NN=C(O1)C2=NN=C(C=C2)N3CCC(CC3)OC4=C(C=CC(=C4)F)Cl + C[C@@H](Oc1cc(-c2cnn(C3CCNCC3)c2)cnc1N)c1c(Cl)ccc(F)c1Cl [Crizotinib] (partner 1 µM)
Method in brief: as §1

NCI-H1650
relative viability ([1]; first compound 0.02 µM): 0.43 | relative viability ([1]; first compound 0.06325 µM): 0.413 | relative viability ([1]; first compound 0.2 µM): 0.433 | relative viability ([1]; first compound 0.6325 µM): 0.318 | relative viability ([1]; first compound 2 µM): 0.237 | relative viability ([2]; first compound 0.02 µM): 0.207 | relative viability ([2]; first compound 0.06325 µM): 0.182 | relative viability ([2]; first compound 0.2 µM): 0.228 | relative viability ([2]; first compound 0.6325 µM): 0.197 | relative viability ([2]; first compound 2 µM): 0.192 | relative viability ([3]; first compound 0.02 µM): 0.79 | relative viability ([3]; first compound 0.06325 µM): 0.627 | relative viability ([3]; first compound 0.2 µM): 0.552 | relative viability ([3]; first compound 0.6325 µM): 0.533 | relative viability ([3]; first compound 2 µM): 0.479 | relative viability ([4]; first compound 0.8 µM): 0.748 | relative viability ([4]; first compound 2.53 µM): 0.806 | relative viability ([4]; first compound 8 µM): 0.803

PC-3 [JPC-3]
relative viability ([1]; first compound 0.02 µM): 0.833 | relative viability ([1]; first compound 0.06325 µM): 0.813 | relative viability ([1]; first compound 0.2 µM): 0.872 | relative viability ([1]; first compound 0.6325 µM): 0.768 | relative viability ([1]; first compound 2 µM): 0.555 | relative viability ([2]; first compound 0.02 µM): 0.819 | relative viability ([2]; first compound 0.06325 µM): 0.771 | relative viability ([2]; first compound 0.2 µM): 0.823 | relative viability ([2]; first compound 0.6325 µM): 0.776 | relative viability ([2]; first compound 2 µM): 0.552 | relative viability ([3]; first compound 0.02 µM): 0.752 | relative viability ([3]; first compound 0.06325 µM): 0.629 | relative viability ([3]; first compound 0.2 µM): 0.733 | relative viability ([3]; first compound 0.6325 µM): 0.614 | relative viability ([3]; first compound 2 µM): 0.514 | relative viability ([4]; first compound 0.253 µM): 0.754 | relative viability ([4]; first compound 0.8 µM): 0.791 | relative viability ([4]; first compound 2.53 µM): 0.818 | relative viability ([4]; first compound 8 µM): 0.75

LOU-NH91
relative viability ([1]; first compound 0.02 µM): 0.82 | relative viability ([1]; first compound 0.06325 µM): 0.797 | relative viability ([1]; first compound 0.2 µM): 0.806 | relative viability ([1]; first compound 0.6325 µM): 0.726 | relative viability ([1]; first compound 2 µM): 0.74 | relative viability ([2]; first compound 0.02 µM): 0.5 | relative viability ([2]; first compound 0.06325 µM): 0.545 | relative viability ([2]; first compound 0.2 µM): 0.484 | relative viability ([2]; first compound 0.6325 µM): 0.564 | relative viability ([2]; first compound 2 µM): 0.44 | relative viability ([3]; first compound 0.02 µM): 0.787 | relative viability ([3]; first compound 0.06325 µM): 0.803 | relative viability ([3]; first compound 0.2 µM): 0.824 | relative viability ([3]; first compound 0.6325 µM): 0.766 | relative viability ([3]; first compound 2 µM): 0.777 | relative viability ([4]; first compound 0.8 µM): 0.654 | relative viability ([4]; first compound 2.53 µM): 0.703 | relative viability ([4]; first compound 8 µM): 0.749
